Assay results taken from US12516052B2, “Methyltransferase 5 (PRMT5) inhibitors and methods of treatment” (THE TRUSTEES OF INDIANA UNIVERSITY, priority 2016, dated 2026).
“Also recorded” adds a separate entry of the source.

Legend:
NF-κB [1] = assay: NF-κB luciferase assay in PANC1 cells; type: cell-based; conditions: increasing concentrations
From the text: (§1) Previously, it was discovered that PRMT5 activates NF-κB through methylation of its p65 subunit in HEK293 cells (Wei et al., Proc Natl Acad Sci USA, 2013; 110: 13516-13521; Wei et al., Cell Cycle, 2013; 13: 32-41). As shown in FIGS. 11A and 11B, overexpression of PRMT5 enhances NF-κB activity, while PRMT5 knockdown causes the opposite effect in both PANC1 (FIG. 11A) and HT-29 (FIG. 11B) cells. To determine if compound (IIa) decreases NF-κB activity, cells transfected with a NF-κB luciferase construct were treated with increasing concentrations of compound (IIa) or the control compound EPZ015666.

[2] = test system: PDAC cells (PANC1, MiaPaCa2 and AsPC1); assay: MTT cell viability assay in PDAC cell lines; type: cell-based; conditions: for cell viability in PDAC cells (PANC1, MiaPaCa2, AsPC1), MTT: increasing concentrations; for IC50: range over PANC1, MiaPaCa2 and AsPC1
Description: (§2) The PRMT5 inhibitory activity of the compounds from the screen was confirmed using both AlphaLISA and an MTT [(3-(4,5-dimethylthiazolyl-2)-2,5-diphenyltetrazolium bromide)] assay (PerkinElmer, Waltham, MA). For the MTT assay, cells were seeded at 90% confluence in 96-well plates and titrated with different dosages of compound (IIa) for 4 days. Media was then removed and 100 μl of MTT (Sigma-Aldrich, St. Louis, MO) was added per well. Cells were incubated for 2 hours at 37° C. before adding 100 μl of DMSO to each well and quantified with the SYNERGY™ H1 Multi-Mode Reader (BioTek Instruments Inc., Winooski, VT). The expression of PRMT5 was examined in pancreatic ductal adenocarcinoma cells at multiple stages of disease progression and in multiple colorectal cancer cell lines. Pancreatic control (HPNE) and cancer cell lines (PANC1, MiaPaCa2 and AsPC1) were grown in Dulbecco's Modified Eagle Medium (DMEM) (GE Healthcare, Little Chalfont, UK), supplemented with 1% of penicillin/streptomycin, 10% fetal bovine serum (FBS). Colon control (FHC) and cancer (HT29, HCT116, and DLD1) cell lines were maintained in RPMI 1640 Medium (Roswell Park Memorial Institute Medium) (GE Healthcare, Little Chalfont, UK), containing 1% penicillin/streptomycin and 10% FBS, while FHC cells were cultured under the same condition with further addition of 25 mM HEPES (4-(2-hydroxyethyl)-1-piperazineethanesulfonic acid), 10 ng/ml cholera toxin, 0.005 mg/ml insulin, 0.005 mg/ml transferring, and 100 ng/ml hydrocortisone. All cell lines were cultured at 37° C. under 5% CO2. The PDAC and CRC cell lines described above were treated with increasing concentrations of compound (IIa) or the commercially available PRMT5 inhibitor EPZ015666 [drawing 12] and quantified for cell viability using the MTT assay described above. […] A soft agar experiment was also performed to determine the effect of compound (IIa) on colony growth.

[3] = test system: CRC cells (HT29, HCT116 and DLD1); assay: MTT cell viability assay in CRC cell lines; type: cell-based; conditions: for cell viability in CRC cells (HT29, HCT116, DLD1), MTT: increasing concentrations; for IC50: range over HT29, HCT116 and DLD1
Description: as §2

NF-κB [4] = assay: NF-κB luciferase assay in HT29 cells; type: cell-based; conditions: increasing concentrations
From the text: as §1

PRMT5 = target: T1, PRMT5 (Homo sapiens, UniProt O14744); assay: AlphaLISA PRMT5 methylation assay (biotin-histone H4R3, SAM); type: biochemical; conditions: PRMT5 methylation of histone H4R3, in vitro; read-out: IC50 using AlphaLISA
T1 construct: Flag; made in house; host or cells: 293 cells
Description: FIG. 1 is a schematic illustration of the AlphaLISA technique for the identification of small-molecule PRMT5 inhibitors. Biotinylated substrate (histone H4) is incubated with PRMT5 and methyl donor, S-adenosyl-1-methionine (SAM). PRMT5 symmetrically dimethylates the third arginine (R3) on biotin-H4 to form biotin-H4R3me2. This product is recognized by Acceptor beads specific for this methylation site. Donor beads have a streptavidin tag and bind to biotin-H4. Interaction between the Acceptor and Donor beads emits a chemiluminescent signal, which is detected by an ENVISION™ Reader (PerkinElmer, Waltham, MA). The methylation activity of PRMT5 is proportional to the intensity of this signal.
In order to identify PRMT5 inhibitors, the AlphaLISA technique (PerkinElmer, Waltham, MA) was adapted to an assay that could precisely quantify PRMT5 dimethylation of its substrate in a 384-well HTS platform (FIG. 1). The AlphaLISA high-throughput screen comprises incubating a biotinylated substrate (e.g., histone H4), PRMT5, and a methyl donor (e.g., S-adenosyl-1-methionine (SAM)); PRMT5 dimethylates the biotinylated substrate and the dimethylated biotinylated substrate is recognized by Acceptor beads specific for the methylation site. Donor beads comprising a tag (e.g., streptavadin) bind to the biotinylated substrate, and interaction between the Acceptor beads and Donor beads emits a signal (e.g., chemiluminescent signal), which can be detected. The methylation activity of PRMT5 is proportional to the intensity of the signal.
In one embodiment of the method used to identify the compounds disclosed herein, PRMT5 enzyme was purified with anti-Flag-M2 beads (Sigma-Aldrich, St. Louis, MO) from 293 cells overexpressing the Flag-PRMT5 protein (Wei et al., Proc Natl Acad Sci USA, 2013; 110: 13516-13521). The enzyme prep was diluted at 1:10 in assay buffer (30 mM Tris, pH 8.0, 1 mM DTT, 0.01% BSA, 0.01% Tween-20) before use. […] The plates were read using an ENVISION™ Reader (PerkinElmer, Waltham, MA).

[5] = Body weight of xenografted NSG mice during treatment; type: in vivo; conditions: 20 mg/kg intraperitoneally 3×/week, over the course of treatment
Description: NSG (NOD scid gamma) mice were obtained from the In Vivo Therapeutics Core at Indiana University School of Medicine. After acclimation for 7 days, NSG mice (6-8 weeks old) were xenografted with mycoplasma-free PANC1 or HT29 cells subcutaneously (1×10^7 PANC1 or 3×10^6 HT29 cells used per mouse in 0.2 ml of a 1:1 mix of phosphate-buffered saline and MATRIGEL™) (BD Biosciences, San Jose, CA). Mice were randomized when tumor volumes reached about 100 mm^3. Mice were treated with either vehicle control or 20 mg/kg of compound (Ia) (drug stock dissolved in 1:1 CREMOPHOR™:ethanol solution) intraperitoneally 3 times per week. Tumor volumes and body weights were measured twice a week. The study was performed in accordance with the guidelines and standards of the Institutional Animal Care and Use Committee (IACUC). […] NSG (NOD scid gamma) mice were obtained from the In Vivo Therapeutics Core at Indiana University School of Medicine. After acclimation for 7 days, NSG mice (6-8 weeks old) were xenografted with mycoplasma-free PANC1 or HT29 cells subcutaneously (1×10^7 PANC1 or 3×10^6 HT29 cells used per mouse in 0.2 ml of a 1:1 mix of phosphate-buffered saline and MATRIGEL™) (BD Biosciences, San Jose, CA). Mice were randomized when tumor volumes reached about 100 mm^3. Mice were treated with either vehicle control or 20 mg/kg of compound (IIa) (drug stock dissolved in 1:1 CREMOPHOR™:ethanol solution) intraperitoneally 3 times per week. Tumor volumes and body weights were measured twice a week. The study was performed in accordance with the guidelines and standards of the Institutional Animal Care and Use Committee (IACUC).

HT-29 colon cancer cells = assay: MTT cell viability assay in HT-29 cells; type: cell-based; conditions: for IC50: 4 days treatment
Description: (§3) The PRMT5 inhibitory activity of the compounds from the screen was confirmed using both AlphaLISA and an MTT [(3-(4,5-dimethylthiazolyl-2)-2,5-diphenyltetrazolium bromide)] assay (PerkinElmer, Waltham, MA). For the MTT assay, cells were seeded at 90% confluence in 96-well plates and titrated with different dosages of compound (IIa) for 4 days. Media was then removed and 100 μl of MTT (Sigma-Aldrich, St. Louis, MO) was added per well. Cells were incubated for 2 hours at 37° C. before adding 100 μl of DMSO to each well and quantified with the SYNERGY™ H1 Multi-Mode Reader (BioTek Instruments Inc., Winooski, VT).
(§4) In order to identify small-molecule PRMT5 inhibitors with increased efficacy compared to compound (IIa), lead optimization of compound (IIa) was performed. Briefly, the pyrozolo-pyrimidine core was maintained and peripheral groups were either added or modified. Compounds were tested to identify PRMT5 inhibitors and their corresponding IC50 values using an MTT assay. For the MTT assay cells (HT-29 or PANC1) were seeded at 90% confluence in 96-well plates and titrated with different dosages of compound (IIa) for 4 days. Media was then removed and 100 μl of MTT (Sigma-Aldrich) was added per well. Cells were incubated for 2 hours at 37° C. before adding 100 μl of DMSO to each well and quantified with the Synergy H1 Multi-Mode Reader (BioTek Instruments Inc., Winooski, VT).

PANC1 cells = assay: PANC1 subcutaneous xenograft tumor efficacy study in NSG mice; type: in vivo; conditions: 20 mg/kg intraperitoneally 3×/week, vs vehicle control, n=4
Description: (§5) NSG (NOD scid gamma) mice were obtained from the In Vivo Therapeutics Core at Indiana University School of Medicine. After acclimation for 7 days, NSG mice (6-8 weeks old) were xenografted with mycoplasma-free PANC1 or HT29 cells subcutaneously (1×10^7 PANC1 or 3×10^6 HT29 cells used per mouse in 0.2 ml of a 1:1 mix of phosphate-buffered saline and MATRIGEL™) (BD Biosciences, San Jose, CA). Mice were randomized when tumor volumes reached about 100 mm^3. Mice were treated with either vehicle control or 20 mg/kg of compound (Ia) (drug stock dissolved in 1:1 CREMOPHOR™:ethanol solution) intraperitoneally 3 times per week. Tumor volumes and body weights were measured twice a week. The study was performed in accordance with the guidelines and standards of the Institutional Animal Care and Use Committee (IACUC). […] NSG (NOD scid gamma) mice were obtained from the In Vivo Therapeutics Core at Indiana University School of Medicine. After acclimation for 7 days, NSG mice (6-8 weeks old) were xenografted with mycoplasma-free PANC1 or HT29 cells subcutaneously (1×10^7 PANC1 or 3×10^6 HT29 cells used per mouse in 0.2 ml of a 1:1 mix of phosphate-buffered saline and MATRIGEL™) (BD Biosciences, San Jose, CA). Mice were randomized when tumor volumes reached about 100 mm^3. […] Tumor volumes and body weights were measured twice a week. […]

HT29 cells = assay: HT29 subcutaneous xenograft tumor efficacy study in NSG mice; type: in vivo; conditions: 20 mg/kg intraperitoneally 3×/week, vs vehicle control, n=4
Description: as §5

[6] = test system: PANC1 pancreatic cancer cells; assay: MTT cell viability assay in PANC1 cells; type: cell-based; conditions: for IC50: 4 days treatment
Description: as §3, §4

T1 sequence (O14744 whole entry): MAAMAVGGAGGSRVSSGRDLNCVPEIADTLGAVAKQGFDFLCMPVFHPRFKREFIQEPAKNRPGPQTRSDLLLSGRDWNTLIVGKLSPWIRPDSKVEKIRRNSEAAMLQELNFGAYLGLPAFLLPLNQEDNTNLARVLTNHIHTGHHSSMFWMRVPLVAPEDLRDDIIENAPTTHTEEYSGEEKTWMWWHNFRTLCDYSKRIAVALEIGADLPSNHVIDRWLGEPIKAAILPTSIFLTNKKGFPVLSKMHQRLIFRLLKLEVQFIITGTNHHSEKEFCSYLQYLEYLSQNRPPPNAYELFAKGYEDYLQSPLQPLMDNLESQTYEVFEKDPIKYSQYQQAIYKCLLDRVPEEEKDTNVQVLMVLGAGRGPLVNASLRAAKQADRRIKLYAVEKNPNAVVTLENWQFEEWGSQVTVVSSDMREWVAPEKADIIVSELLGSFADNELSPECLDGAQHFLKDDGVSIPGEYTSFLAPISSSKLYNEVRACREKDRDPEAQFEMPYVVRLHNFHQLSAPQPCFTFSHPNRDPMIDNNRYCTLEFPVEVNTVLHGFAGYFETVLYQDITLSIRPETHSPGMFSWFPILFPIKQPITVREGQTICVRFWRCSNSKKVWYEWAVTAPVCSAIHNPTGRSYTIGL
T1 sequence (Q9BQA1 whole entry partner): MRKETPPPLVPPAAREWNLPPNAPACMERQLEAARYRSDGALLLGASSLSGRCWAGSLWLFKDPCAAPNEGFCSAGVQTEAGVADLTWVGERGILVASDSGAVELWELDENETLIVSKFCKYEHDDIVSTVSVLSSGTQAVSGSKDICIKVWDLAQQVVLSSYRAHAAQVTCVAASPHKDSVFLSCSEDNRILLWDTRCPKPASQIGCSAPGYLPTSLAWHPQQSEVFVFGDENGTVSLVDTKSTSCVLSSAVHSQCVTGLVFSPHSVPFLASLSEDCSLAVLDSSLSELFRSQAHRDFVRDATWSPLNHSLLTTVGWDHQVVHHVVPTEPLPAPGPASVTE

## O=C(NC[C@H](O)CN1CCc2ccccc2C1)c1cc(NC2COC2)ncn1 [EPZ015666, reference compound]
NF-κB [1]
  NF-κB activation (luciferase), PANC1: much higher concentration; also recorded: needed a higher concentration
[2]
  cell viability in PDAC cells (PANC1, MiaPaCa2, AsPC1), MTT: lower efficacy
  IC50: 50 to 95 µM
[3]
  cell viability in CRC cells (HT29, HCT116, DLD1), MTT: lower efficacy
  IC50: 180 to 195 µM
NF-κB [4]
  NF-κB activation (luciferase), HT29: much higher concentration; also recorded: needed a higher concentration

## O=C(NC[C@H]1C[C@@H]2CC[N@@]1C[C@@H]2CN1CCC(Cc2ccccc2)CC1)c1ccc2c(c1)OCO2 [compound (IIIa)]
[2]
  cell viability in PDAC cells (PANC1, MiaPaCa2, AsPC1), MTT: decreased significantly
  IC50: 8.5 to 12.5 µM
[3]
  cell viability in CRC cells (HT29, HCT116, DLD1), MTT: decreased significantly
  IC50: 5 to 11 µM
PRMT5
  IC50: ~1.5 µM

## COc1cc(C)c(Oc2cc(C)cc(O)c2O)c(O)c1 [compound (IVa)]
[2]
  cell viability in PDAC cells (PANC1, MiaPaCa2, AsPC1), MTT: decreased significantly
  IC50: 22 to 51 µM
[3]
  cell viability in CRC cells (HT29, HCT116, DLD1), MTT: decreased significantly
  IC50: 35 to 50 µM
PRMT5
  IC50: ~16.5 µM

## Cc1ccc(-n2ncc3c(NCc4cccnc4)nc(Cl)nc32)cc1 [compound (Ia)]
[5]
  body weight, HT29 model: did not visibly affect the body weight; also recorded: no significant changes in body weight
  body weight, PANC1 model: did not visibly affect the body weight; also recorded: no significant changes in body weight
HT-29 colon cancer cells
  IC50: 2.2 µM
HT-29 colon cancer cells; Homo sapiens, HT-29, 96 h
  IC50: 2 µM
HT-29 colon cancer cells; increasing concentrations
  cell viability in CRC cells (HT29), MTT: decreased significantly
PANC1 cells
  tumor growth (tumor volume), PANC1 xenograft: significant tumor inhibition effect; also recorded: inhibition of tumor growth
HT29 cells
  tumor growth (tumor volume), HT29 xenograft: significant tumor inhibition effect; also recorded: inhibition of tumor growth
[6]; increasing concentrations
  cell viability in PDAC cells (PANC1), MTT: decreased significantly

## Clc1ccc(-n2ncc3c(NCCN4CCCC4)nc(Cl)nc32)cc1 [compound (Ib)]
[6]; Homo sapiens, PANC-1, 96 h
  IC50: 11 µM

## Clc1ccc(-n2ncc3c(NCC4CCCO4)nc(Cl)nc32)cc1 (centres unmarked) [compound (If)]
HT-29 colon cancer cells; Homo sapiens, HT-29, 96 h
  IC50: 7 µM
[6]; Homo sapiens, PANC-1, 96 h
  IC50: 8 µM

## Clc1ccc(-n2ncc3c(NCC4CCCO4)nc(Cl)nc32)cc1 (centres unmarked) [compound (Ig)]
HT-29 colon cancer cells
  IC50: 7 µM
[6]
  IC50: 11 µM
